Here are results for six molecules from patent publication US20160039917A1, “Method for Treating Eclampsia and Preeclampsia” (VELO BIO, LLC, priority 2013, published 2016).

For experiment [1], the system named is human placental EDLF production (fetal tissues). As to the kind of experiment: Placental explant culture (fetal side), EDLF released into media measured by Digibind RIA. In kind it is cell-based. As to conditions: for EDLF in the conditioned media, earlier time points / EDLF concentration in the conditioned media: 2 μM; for EDLF in the conditioned media, earlier time points: early time point experiment; for EDLF accumulation in culture: time course; for EDLF production: fetal tissues.

Experiment [2] deals with placental ROS release (lipid peroxides). As to conditions: 48 hours. The procedure: (§1) For these studies placentas from uncomplicated pregnancies were obtained immediately after delivery and 4-5 small tissue pieces (˜5 mm×5 mm×5 mm) were cut off from the inner fetal side. The tissue pieces were dissected into tiny pieces with sterilized scissors. Any visible clots and blood vessels were removed with sterilized tweezers. The remaining villi were washed repeatedly with PBS to remove blood from the intervillous space. Villous tissue of ˜5 mg/well was then patted dry by sterilized paper tower and incubated in a 6-well cell culture plate with 5 mL of serum-free DMEM (Gibson, Grand Island, N.Y., USA) containing 100 U/mL penicillin, 100 μg/mL streptomycin and 0.25 μg/mL amphotericin B (Sigma, St. Louis, Mo., USA) per well for 48 hours at 37° C. in an incubator gassed with 95% air and 5% CO2.
(§2) Conditioned media from placental explants cultured with hydrogen peroxide or under low O2 conditions were collected and assayed by a Lipid Hydroperoxide (LPO) Assay Kit (Cayman Chemical, Ann Arbor, Mich., USA) and a human TNF-alpha Quantikine ELISA Kit (R&D Systems, Minneapolis, Minn., USA) following the manufacturers' methods to determine levels of lipid oxidation.

For experiment [3], the system named is placental TNFα release. As to conditions: 48 hours. The procedure: as §1, §2
Experiment [4] deals with human placental EDLF production (maternal tissues). As to conditions: 48 hours.
Procedure: Human placenta was dissected into fetal and maternal tissues. These were incubated in buffered culture media for 48 hours in the absence or presence of graded concentrations of ketoconazole. The culture media was collected and the amount of EDLF released from the tissue was measured using an RIA.
At the end of incubation, samples of the culture medium were collected in 15 mL conical tubes and any residual villi were removed by centrifuging at 4000 RPM for 2 min. The supernatant was stored at −80° C. as conditioned medium until later processing and assay.
After the homogenization and tissue culture processes, homogenate and conditioned media samples were collected and assayed by radioimmunoassay. Digibind (GlaxoSmithKline, Research Triangle Park, N.C., USA) was used as the primary antibody anti-EDLF/ouabain and a rabbit anti-sheep immunoglobulin (IgG) Fab fragment antibody (Jackson ImmunoResearch Laboratories, Inc., West Grove, Pa., USA) was used as the secondary antibody. […] Tritiated ouabain (30.0 Ci/mmol, Perkin Elmer, Boston, Mass., USA) was used as a tracer. Cold ouabain solutions at graded concentrations were used as standards. A 100 μL aliquot of specimen or standard ouabain solution (50 nM, 0.1 μM, 0.2 μM, 0.5 μM, 1 μM, 3 μM), plus 50 μL of a 2.22×10^-8 M tritiated ouabain solution, 300 μL of 1.8 μg/mL Digibind solution, 60 μL of 2.12×10^-7 M 2° Ab solution and 10 μL of 10 mM pH 7.4 Tris buffer were combined and mixed well, then allowed to incubate at room temperature overnight to allow antigen-antibody binding. For the assay of conditioned media, because samples contained DMEM medium, 100 μL of DMEM were added to the reaction solutions for each standard and 100 μL of deionized H2O were added to reaction solutions for specimens to bring them to the same volume. EDLF in the several conditioned media/homogenate specimens or standard cold ouabain in the calibrating solutions competed with the labeled ouabain for Digibind and then the secondary (2°) antibody was added to bind to the primary (1°) antibody-antigen complex to decrease its solubility. After the overnight incubation, 563 μL of 16% polyethylene glycol (PEG)-6000 (Calbiochem, La Jolla, Calif., USA) was added to each reaction solution to precipitate the antibody-antigen complex. After centrifugation at 13,200 rpm for 30 min, the supernatant was discarded and the pellet was resuspended in 500 μL of 0.05 M phosphate buffer (pH 7.0).

Read-outs that look alike come from different tables or passages of the source.

For the molecule `CC(=O)[C@H]1CC[C@H]2[C@@H]3CC=C4C[C@@H](O)CC[C@]4(C)[C@H]3CC[C@]12C` [pregnenolone], the figures for the “EDLF in the conditioned media, earlier time points” value in experiment [1] (3 hours) and in experiment [1] (6 hours) were 77.4+25.0 ×10^−8 M and 76.8+35.0 ×10^−8 M ouabain equivalents, respectively. For the same molecule, the “EDLF concentration in the conditioned media” value is listed as 325.6±61.0 ×10^−8 M in experiment [1] (6 hours); 136.1±27.7 ×10^−8 M in experiment [1] (12 hours); 148.4±15.1 ×10^−8 M in experiment [1] (24 hours); 113.6±14.4 ×10^−8 M in experiment [1] (36 hours); 48.5±7.4 ×10^−8 M in experiment [1] (48 hours).

As for `OO` [H2O2, hydrogen peroxide], in experiment [1] (48 hours, 5 nM), the “released EDLF” value is 4.87±1.57 ×10^−8 M ouabain equivalents. The “EDLF levels in the media” value in experiment [1] (higher concentrations (10 nM, 20 nM)) was “equal or slightly lower than those treated with 5 nM H2O2”. The lipid peroxides in experiment [2] (1.0 nM) worked out at 6.62 ± 3.31 µM; in experiment [2] (5.0 nM), 9.17 ± 3.18 µM; in experiment [2] (10.0 nM) it was 11.43 ± 3.67 µM; in experiment [2] (20.0 nM), 13.13 ± 5.04 µM. Also, the TNFα release in experiment [3] (1.0 nM) came to 18.61 ± 13.60 pg/mL; in experiment [3] (5.0 nM) it was 14.95 ± 6.39 pg/mL; in experiment [3] (10.0 nM), 15.83 ± 6.63 pg/mL; in experiment [3] (20.0 nM) it was 13.50 ± 3.43 pg/mL.

For `CC(=O)[C@@]1(O)CC[C@H]2[C@@H]3CCC4=CC(=O)CC[C@]4(C)[C@H]3CC[C@@]21C` [17P, 17α-hydroxyprogesterone], the “EDLF released into the culture media” value in experiment [1] (48 hours, 0.20 μM) is listed as 3.60±1.06 ×10^−8 M ouabain equivalents; in experiment [1] (48 hours, 0.50 μM), 3.76±0.84 ×10^−8 M ouabain equivalents; in experiment [1] (48 hours, 1.0 μM), 4.40±1.12 ×10^−8 M ouabain equivalents; in experiment [1] (48 hours, 2.0 μM), 4.91±1.52 ×10^−8 M ouabain equivalents. Moreover, the “EDLF accumulation in culture” value is listed as 12.60±3.81 ×10^−8 M ouabain equivalents in experiment [1] (2.0 μM, 6 hours); 28.30±6.30 ×10^−8 M ouabain equivalents in experiment [1] (2.0 μM, 12 hours); 55.39±33.62 ×10^−8 M ouabain equivalents in experiment [1] (2.0 μM, 24 hours); 95.00±40.44 ×10^−8 M ouabain equivalents in experiment [1] (2.0 μM, 36 hours); 132.43±74.37 ×10^−8 M ouabain equivalents in experiment [1] (2.0 μM, 48 hours).

For the molecule TNFα, the “EDLF released into the culture media” value is listed as 2.41±0.80 ×10^−8M ouabain equivalents in experiment [1] (48 hours, 1.0 nM); 2.75±0.98 ×10^−8M ouabain equivalents in experiment [1] (48 hours, 2.0 nM); 2.76±0.80 ×10^−8M ouabain equivalents in experiment [1] (48 hours, 5.0 nM); 3.51±0.69 ×10^−8M ouabain equivalents in experiment [1] (48 hours, 10.0 nM); 4.47±0.99 ×10^−8M ouabain equivalents in experiment [1] (48 hours, 20.0 nM).

For the molecule `CC(=O)[C@H]1CC[C@H]2[C@@H]3CCC4=CC(=O)CC[C@]4(C)[C@H]3CC[C@]12C` [Progesterone, progesterone], in experiment [1] (placenta), the “effect on EDLF production” value is “little or no effect”.

Consider `CC(=O)N1CCN(c2ccc(OCC3COC(Cn4ccnc4)(c4ccc(Cl)cc4Cl)O3)cc2)CC1` (stereo not drawn) [ketoconazole], for which the EDLF production is listed as 7.99±13.21 ×10^−8 M RIA ouabain equivalents in experiment [1] (48 hours, 1.0 μM); 5.58±8.91 ×10^−8 M RIA ouabain equivalents in experiment [1] (48 hours, 2.0 μM); 1.60±1.62 ×10^−8 M RIA ouabain equivalents in experiment [1] (48 hours, 5.0 μM); 1.47±1.64 ×10^−8 M RIA ouabain equivalents in experiment [1] (48 hours, 10.0 μM); 1.25±1.43 ×10^−8 M RIA ouabain equivalents in experiment [1] (48 hours, 20.0 μM); 1.90±2.05 ×10^−8 M RIA ouabain equivalents in experiment [4] (1.0 μM). The EDLF production in experiment [4] (2.0 μM) is 1.79±1.96 ×10^−8 M RIA ouabain equivalents; in experiment [4] (5.0 μM), 1.83±2.03 ×10^−8 M RIA ouabain equivalents; in experiment [4] (10.0 μM) it was 1.73±1.82 ×10^−8 M RIA ouabain equivalents; in experiment [4] (20.0 μM), 2.46±2.60 ×10^−8 M RIA ouabain equivalents.
